According to ChEMBL document CHEMBL1201862, “PubChem BioAssay data set” (2004):
The source made the active and inactive calls.

Legend:
HEK293 [1] = assay: NOD1 signaling inhibitors, primary screen, cell-based, luminescence, uHTS (AID 1578); format: functional; conditions: Homo sapiens
BJ [2] = assay: cytotoxicity toward BJ-TERT fibroblasts, dose response, cell-based, RAS-independent, luminescence (AID 1933); format: functional; conditions: Homo sapiens
HEK293 [3] = assay: cells; format: functional, cell-based; conditions: Homo sapiens
BJ [4] = assay: cells; format: functional, cell-based; conditions: Homo sapiens
HEK293 [5] = assay: cells; format: functional, cell-based; conditions: Homo sapiens; remark: listed apart in the source
HEK293 [6] = assay: NOD2 signaling inhibitors in MDP-stimulated cells, cell-based, uHTS, luminescence (AID 2001); format: functional; conditions: Homo sapiens
BJ [7] = assay: cytotoxicity toward BJ-TERT-LT-ST fibroblasts, dose response, cell-based, RAS-independent, luminescence (AID 1935); format: functional; conditions: Homo sapiens;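 note: BJ fibroblasts immortalized with TERT plus LT and ST oncogenes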
[8] = cytotoxicity toward DRD oncogenic fibroblasts, dose response, cell-based, non-viral oncogenic, luminescence (AID 1934); format: functional; conditions: Homo sapiens
[9] = cytotoxicity in HEK-293T cells, dose response, cytotoxicity control for TCR NF-kB inhibitor project, luminescence, T-cell screen hits (AID 489026); format: functional, cell-based;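 note: cells exposed to compound about 14 hours before the viability readout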
BJ [10] = assay: cytotoxicity toward Ras-transformed BJeLR fibroblasts, dose response, cell-based, alamar blue fluorescence, cherrypicked samples (AID 2631); format: functional; conditions: Homo sapiens;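 note: confirmatory dose-response assay in RAS-dependent BJ fibroblasts engineered with TERT, LT and ST, with cytotoxicity read by fluorescence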
Paired box protein Pax-8 = Paired box protein Pax-8 (Homo sapiens, UniProt Q06710); assay: inhibitors of PAX8-driven TPO luciferase reporter, dose response, RMG-I cells, cherry-pick (AID 687027); format: functional, cell-based;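 note: luciferase reporter driven by Pax8 target thyroperoxidase promoter measured by SteadyGlo luminescence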
[11] = non-specific cell cytotoxicity, dose response, cytotoxicity control for PAX8 inhibitor project, plate reader, dry powder samples (AID 743021); format: functional, cell-based
[12] = molecular target: T1, RNA-binding protein pos-1 (Caenorhabditis elegans, UniProt G5EF15); assay: inhibitors of POS-1/mex-3 RNA binding, dose response, biochemical, fluorescence polarization (AID 1964);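 note: purified POS-1 fused to maltose binding protein made in E. coli; potency of compounds blocking POS-1 binding to fluorescent RNA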
T1 sequence (G5EF15 whole entry): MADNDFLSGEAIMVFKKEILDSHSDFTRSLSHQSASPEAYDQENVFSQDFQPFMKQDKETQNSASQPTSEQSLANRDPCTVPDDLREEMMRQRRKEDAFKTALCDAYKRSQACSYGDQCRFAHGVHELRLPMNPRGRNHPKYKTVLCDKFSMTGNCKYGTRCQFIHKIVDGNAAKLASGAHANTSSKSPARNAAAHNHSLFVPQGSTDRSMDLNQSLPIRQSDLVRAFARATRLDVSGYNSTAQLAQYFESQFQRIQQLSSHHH

[13] = molecular target: T2, Zinc finger protein mex-5 (Caenorhabditis elegans, UniProt Q9XUB2); assay: MEX-5/TCR-2 RNA interaction inhibitors, dose response, biochemical, C. elegans, fluorescence polarization (AID 1960)
T2 sequence (Q9XUB2 whole entry): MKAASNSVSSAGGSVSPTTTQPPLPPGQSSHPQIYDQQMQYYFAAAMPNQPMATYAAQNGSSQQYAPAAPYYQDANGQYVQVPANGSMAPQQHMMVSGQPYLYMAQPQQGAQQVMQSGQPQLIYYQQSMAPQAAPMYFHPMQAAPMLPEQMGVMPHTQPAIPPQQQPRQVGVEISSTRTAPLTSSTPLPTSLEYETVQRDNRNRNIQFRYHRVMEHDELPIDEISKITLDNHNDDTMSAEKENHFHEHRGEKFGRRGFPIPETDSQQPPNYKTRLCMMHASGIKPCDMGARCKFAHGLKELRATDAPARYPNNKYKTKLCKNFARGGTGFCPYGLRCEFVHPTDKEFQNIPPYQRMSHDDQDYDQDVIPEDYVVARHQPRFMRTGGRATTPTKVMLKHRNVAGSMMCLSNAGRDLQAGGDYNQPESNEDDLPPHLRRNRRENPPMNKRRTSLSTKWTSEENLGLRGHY

Genome polyprotein = Genome polyprotein (dengue virus type 2, UniProt P29990); assay: Dengue-2 NS5 methyltransferase inhibitors, primary screen, biochemical, confirmation dose response (AID 588689); format: functional
Albumin = Albumin (Bos taurus, UniProt P02769); assay: Counterscreen for inhibitors of T-cell receptor (TCR)-CD3 interaction: Fluorescence-based biochemical high throughput dose response assay to identify inhibitors of T-cell receptor (TCR)-CD3 interaction using a TAMRA-labeled BSA probe.; format: functional
[14] = molecular target: Mitogen-activated protein kinase 10 (Homo sapiens, UniProt P53779); assay: Dose response biochemical screening assay for inhibitors of c-Jun N-Terminal Kinase 3 (JNK3). [Related pubchem assays: 746 ]
[15] = Shn3 3'UTR reporter inhibitors, dose response, cell-based, Clone20 osteoblasts, firefly luciferase, cherry-picked (AID 624132); format: functional;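 note: firefly luciferase luminescence from reporter carrying the Shn3 3'UTR in osteoblasts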
[16] = HepG2 cell cytotoxicity, dose response, cytotoxicity control for Shn3 inhibitor project, CellTiter-Glo, cherry-picked (AID 624134); format: functional, cell-based
[17] = control 3'UTR Renilla luciferase suppression, dose response, counter-screen for Shn3 inhibitor project, cell-based, Clone20-Shn3RL, cherry-picked (AID 624133); format: functional
[18] = molecular target: T3, COUP transcription factor 2 (Homo sapiens, UniProt P24468); assay: Luminescence-based cell-based high throughput dose response assay to identify inhibitors of COUP-TFII (NR2F2).; format: functional;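 note: HEK293 cells transiently cotransfected with COUP-TFII expression vector and reporter; luciferase reporter luminescence driven by COUP-TFII from the pX2-168 reporter plasmid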
T3 sequence (P24468 whole entry): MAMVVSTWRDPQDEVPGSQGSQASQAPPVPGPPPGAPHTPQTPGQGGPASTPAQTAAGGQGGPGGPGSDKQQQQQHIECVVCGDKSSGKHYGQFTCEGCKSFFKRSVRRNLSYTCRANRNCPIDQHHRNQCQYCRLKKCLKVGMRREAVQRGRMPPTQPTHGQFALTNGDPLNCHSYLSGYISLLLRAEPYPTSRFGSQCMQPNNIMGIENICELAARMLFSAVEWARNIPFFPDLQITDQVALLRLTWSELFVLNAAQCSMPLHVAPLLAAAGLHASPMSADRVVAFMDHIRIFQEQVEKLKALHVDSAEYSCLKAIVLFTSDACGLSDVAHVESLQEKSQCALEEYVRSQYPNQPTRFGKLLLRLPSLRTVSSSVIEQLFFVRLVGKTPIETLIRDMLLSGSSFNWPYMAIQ

[19] = A549 cell cytotoxicity, dose response, cytotoxicity control, plate reader, cherry-pick, antagonist series (AID 743412); format: functional, cell-based
[20] = HepG2 cell cytotoxicity, dose response, cytotoxicity control, plate reader, cherry-pick, antagonist series (AID 743416); format: functional, cell-based
[21] = LGR2 antagonists, dose response, cell-based, HEK293, CRE-luciferase reporter, cherry pick, set 2 (AID 743343); format: functional;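 note: transfected cells were stimulated with diluted bursicon conditioned medium after compound addition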
[22] = MC4R antagonists, dose response, counter-screen for LGR2 antagonist project, cell-based, plate reader, cherry pick (AID 743444); format: functional;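 note: transfected HEK 293 cells stimulated with alpha-MSH peptide; potency of inhibitors of the alpha-MSH evoked signal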
[23] = molecular target: NAD-dependent protein deacylase sirtuin-5, mitochondrial (Homo sapiens, UniProt Q9NXA8); assay: SIRT5 desuccinylase inhibitors, dose response, biochemical, fluorescence imaging, cherry-pick, set 5 (AID 720591);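 note: desuccinylation of succinyl peptide AMC substrate read as fluorescence after trypsin release; potency of inhibitors that lower fluorescence and may act on trypsin instead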
INS1 = assay: beta cell apoptosis inhibitors, cytokine rescue, dose response, luminescence, retest (AID 449756); format: functional, cell-based; conditions: Rattus norvegicus;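 note: cell death triggered by IL-1 beta plus TNF-alpha plus IFN-gamma mixture; protective hits raise ATP signal compared with cytokine alone wells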
[24] = molecular target: Disintegrin and metalloproteinase domain-containing protein 17 (Homo sapiens, UniProt P78536); assay: exosite inhibitors of ADAM17, dose response, biochemical (AID 743260)
[25] = ADAM10 protease inhibitors, dose response, selectivity assay for ADAM17 exosite inhibitor project, biochemical, FRET peptide substrate, recombinant human ADAM10 (AID 743259);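 note: ADAM10 enzyme cleaving a FRET peptide substrate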
[26] = molecular target: Peroxisome proliferator-activated receptor gamma/Nuclear receptor coactivator 1 (Homo sapiens, UniProt P37231); assay: (§1) TR-FRET dose response biochemical High Throughput Screening assay for agonists of the steroid receptor coactivator 1 (SRC-1) recruitment by the peroxisome proliferator-activated receptor gamma (PPAR gamma): non-selective agonists. [Related pubchem assays (depositor defined):AID1300, AID1808, AID504735, AID631]; format: protein assay
[27] = molecular target: Peroxisome proliferator-activated receptor gamma/Nuclear receptor coactivator 3 (Homo sapiens, UniProt P37231); assay: as §1, with “3 (SRC-3)” for “1 (SRC-1)”, “assays: 1301 (Confirmation screen.), 1048 (Primary screen.)]” for “assays (depositor defined):AID1300, AID1808, AID504735, AID631]”; format: functional
[28] = molecular target: Peroxisome proliferator-activated receptor gamma/Nuclear receptor coactivator 2 (Homo sapiens, UniProt P37231); assay: TR-FRET dose response biochemical High Throughput Screening assay for agonists of the steroid receptor coactivator 2 (SRC-2) recruitment by the peroxisome proliferator-activated receptor gamma (PPAR gamma): non-selective agonists. [Related pubchem assays: 1297, 1032 ]; format: functional

Disintegrin and metalloproteinase domain-containing protein 17, sequence (P78536 whole entry, the tested form may be a part): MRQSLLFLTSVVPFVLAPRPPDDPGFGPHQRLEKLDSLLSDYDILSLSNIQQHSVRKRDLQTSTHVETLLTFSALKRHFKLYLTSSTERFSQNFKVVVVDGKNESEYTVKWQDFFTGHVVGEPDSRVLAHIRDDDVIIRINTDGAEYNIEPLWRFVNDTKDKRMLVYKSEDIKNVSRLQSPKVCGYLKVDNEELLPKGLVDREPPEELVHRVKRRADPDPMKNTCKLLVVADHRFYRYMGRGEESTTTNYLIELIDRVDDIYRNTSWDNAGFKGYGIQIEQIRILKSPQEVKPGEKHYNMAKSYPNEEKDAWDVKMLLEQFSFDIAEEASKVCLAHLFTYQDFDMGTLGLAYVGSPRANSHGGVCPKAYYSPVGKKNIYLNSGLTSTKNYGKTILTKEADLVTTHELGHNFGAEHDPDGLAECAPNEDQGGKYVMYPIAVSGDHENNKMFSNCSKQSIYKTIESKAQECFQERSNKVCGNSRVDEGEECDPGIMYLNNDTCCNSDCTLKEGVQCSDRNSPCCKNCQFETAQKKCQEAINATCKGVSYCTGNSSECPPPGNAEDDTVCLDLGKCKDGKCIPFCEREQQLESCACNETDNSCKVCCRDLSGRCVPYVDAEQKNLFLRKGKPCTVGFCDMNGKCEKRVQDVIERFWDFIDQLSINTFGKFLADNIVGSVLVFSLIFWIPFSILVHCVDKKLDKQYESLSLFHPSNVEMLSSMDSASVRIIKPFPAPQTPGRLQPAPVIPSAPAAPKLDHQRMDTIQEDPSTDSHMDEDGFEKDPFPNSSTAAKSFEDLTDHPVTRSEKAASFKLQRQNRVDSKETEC
Mitogen-activated protein kinase 10, sequence (P53779 whole entry): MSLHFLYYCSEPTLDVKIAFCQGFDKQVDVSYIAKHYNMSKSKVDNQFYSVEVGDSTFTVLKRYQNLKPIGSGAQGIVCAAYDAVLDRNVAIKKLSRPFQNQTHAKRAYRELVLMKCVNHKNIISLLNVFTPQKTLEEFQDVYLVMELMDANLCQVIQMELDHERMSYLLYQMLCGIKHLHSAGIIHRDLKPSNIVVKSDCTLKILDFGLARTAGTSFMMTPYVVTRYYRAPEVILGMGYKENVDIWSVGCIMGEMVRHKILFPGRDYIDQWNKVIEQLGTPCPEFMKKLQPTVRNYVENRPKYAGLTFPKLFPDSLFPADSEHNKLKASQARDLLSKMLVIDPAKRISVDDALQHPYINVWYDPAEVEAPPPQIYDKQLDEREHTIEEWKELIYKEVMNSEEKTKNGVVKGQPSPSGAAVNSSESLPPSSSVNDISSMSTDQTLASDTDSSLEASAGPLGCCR
NAD-dependent protein deacylase sirtuin-5, mitochondrial, sequence (Q9NXA8 whole entry): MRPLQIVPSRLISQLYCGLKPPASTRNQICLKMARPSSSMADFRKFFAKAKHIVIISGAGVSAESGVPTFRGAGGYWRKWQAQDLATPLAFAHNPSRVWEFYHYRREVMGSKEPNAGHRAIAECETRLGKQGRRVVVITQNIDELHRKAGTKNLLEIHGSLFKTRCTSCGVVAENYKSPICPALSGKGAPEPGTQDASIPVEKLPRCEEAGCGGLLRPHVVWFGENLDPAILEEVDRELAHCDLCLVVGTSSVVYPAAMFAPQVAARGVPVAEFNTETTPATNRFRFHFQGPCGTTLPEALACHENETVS
Albumin, sequence (P02769 whole entry): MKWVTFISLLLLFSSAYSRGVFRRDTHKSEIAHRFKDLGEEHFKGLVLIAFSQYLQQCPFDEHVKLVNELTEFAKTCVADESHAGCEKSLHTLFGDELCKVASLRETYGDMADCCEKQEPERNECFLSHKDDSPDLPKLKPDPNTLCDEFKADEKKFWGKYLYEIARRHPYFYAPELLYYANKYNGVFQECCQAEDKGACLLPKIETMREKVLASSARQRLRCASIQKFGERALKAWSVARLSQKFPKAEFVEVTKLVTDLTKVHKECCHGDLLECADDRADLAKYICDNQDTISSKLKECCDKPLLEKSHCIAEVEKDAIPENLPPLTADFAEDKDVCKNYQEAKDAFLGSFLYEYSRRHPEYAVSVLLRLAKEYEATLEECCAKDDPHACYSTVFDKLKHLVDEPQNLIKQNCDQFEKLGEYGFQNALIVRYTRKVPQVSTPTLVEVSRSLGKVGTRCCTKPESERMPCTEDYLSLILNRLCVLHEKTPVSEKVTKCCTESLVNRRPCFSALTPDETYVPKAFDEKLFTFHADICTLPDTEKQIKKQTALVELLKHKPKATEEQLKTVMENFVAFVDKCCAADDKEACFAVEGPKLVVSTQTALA
Genome polyprotein, sequence (P29990 2492-3391 limits assumed): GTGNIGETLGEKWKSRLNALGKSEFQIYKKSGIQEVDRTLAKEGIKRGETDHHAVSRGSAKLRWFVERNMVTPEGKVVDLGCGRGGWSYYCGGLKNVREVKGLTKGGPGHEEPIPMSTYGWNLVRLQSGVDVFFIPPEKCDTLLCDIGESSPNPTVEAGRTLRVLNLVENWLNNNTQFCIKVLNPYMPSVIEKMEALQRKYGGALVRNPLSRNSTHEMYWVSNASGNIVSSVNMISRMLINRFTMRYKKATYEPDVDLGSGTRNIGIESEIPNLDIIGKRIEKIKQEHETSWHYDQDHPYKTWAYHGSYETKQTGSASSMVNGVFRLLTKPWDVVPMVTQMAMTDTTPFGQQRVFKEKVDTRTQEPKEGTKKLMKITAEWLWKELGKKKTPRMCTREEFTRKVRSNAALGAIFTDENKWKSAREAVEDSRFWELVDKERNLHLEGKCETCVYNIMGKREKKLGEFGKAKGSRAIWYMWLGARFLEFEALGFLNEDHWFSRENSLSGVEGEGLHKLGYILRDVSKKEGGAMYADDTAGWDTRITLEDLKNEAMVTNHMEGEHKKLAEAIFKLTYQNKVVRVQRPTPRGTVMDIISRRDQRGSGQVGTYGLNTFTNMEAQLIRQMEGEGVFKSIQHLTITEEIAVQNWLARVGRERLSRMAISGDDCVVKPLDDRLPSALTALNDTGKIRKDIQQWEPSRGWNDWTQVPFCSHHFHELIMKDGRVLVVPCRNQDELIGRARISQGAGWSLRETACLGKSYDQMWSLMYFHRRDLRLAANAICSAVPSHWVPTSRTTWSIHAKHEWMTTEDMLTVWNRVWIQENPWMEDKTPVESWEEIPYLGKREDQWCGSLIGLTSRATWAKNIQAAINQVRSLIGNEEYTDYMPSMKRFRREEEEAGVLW
Peroxisome proliferator-activated receptor gamma/Nuclear receptor coactivator 3, sequence (P37231 whole entry): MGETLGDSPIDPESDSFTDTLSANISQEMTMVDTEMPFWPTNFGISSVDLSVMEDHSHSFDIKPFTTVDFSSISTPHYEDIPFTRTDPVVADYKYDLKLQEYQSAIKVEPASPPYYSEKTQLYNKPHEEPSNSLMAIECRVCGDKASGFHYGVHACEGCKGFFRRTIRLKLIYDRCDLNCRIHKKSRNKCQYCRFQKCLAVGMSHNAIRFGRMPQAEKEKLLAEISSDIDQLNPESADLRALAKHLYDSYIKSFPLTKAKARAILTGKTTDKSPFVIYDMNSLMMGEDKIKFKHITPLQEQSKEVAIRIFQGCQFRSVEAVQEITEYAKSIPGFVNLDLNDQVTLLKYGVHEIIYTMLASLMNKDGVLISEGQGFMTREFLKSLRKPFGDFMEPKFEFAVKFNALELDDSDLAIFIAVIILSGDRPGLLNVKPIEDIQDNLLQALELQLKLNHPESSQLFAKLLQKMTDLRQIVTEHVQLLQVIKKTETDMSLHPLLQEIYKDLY
Peroxisome proliferator-activated receptor gamma/Nuclear receptor coactivator 3, sequence (Q9Y6Q9 whole entry, further chain): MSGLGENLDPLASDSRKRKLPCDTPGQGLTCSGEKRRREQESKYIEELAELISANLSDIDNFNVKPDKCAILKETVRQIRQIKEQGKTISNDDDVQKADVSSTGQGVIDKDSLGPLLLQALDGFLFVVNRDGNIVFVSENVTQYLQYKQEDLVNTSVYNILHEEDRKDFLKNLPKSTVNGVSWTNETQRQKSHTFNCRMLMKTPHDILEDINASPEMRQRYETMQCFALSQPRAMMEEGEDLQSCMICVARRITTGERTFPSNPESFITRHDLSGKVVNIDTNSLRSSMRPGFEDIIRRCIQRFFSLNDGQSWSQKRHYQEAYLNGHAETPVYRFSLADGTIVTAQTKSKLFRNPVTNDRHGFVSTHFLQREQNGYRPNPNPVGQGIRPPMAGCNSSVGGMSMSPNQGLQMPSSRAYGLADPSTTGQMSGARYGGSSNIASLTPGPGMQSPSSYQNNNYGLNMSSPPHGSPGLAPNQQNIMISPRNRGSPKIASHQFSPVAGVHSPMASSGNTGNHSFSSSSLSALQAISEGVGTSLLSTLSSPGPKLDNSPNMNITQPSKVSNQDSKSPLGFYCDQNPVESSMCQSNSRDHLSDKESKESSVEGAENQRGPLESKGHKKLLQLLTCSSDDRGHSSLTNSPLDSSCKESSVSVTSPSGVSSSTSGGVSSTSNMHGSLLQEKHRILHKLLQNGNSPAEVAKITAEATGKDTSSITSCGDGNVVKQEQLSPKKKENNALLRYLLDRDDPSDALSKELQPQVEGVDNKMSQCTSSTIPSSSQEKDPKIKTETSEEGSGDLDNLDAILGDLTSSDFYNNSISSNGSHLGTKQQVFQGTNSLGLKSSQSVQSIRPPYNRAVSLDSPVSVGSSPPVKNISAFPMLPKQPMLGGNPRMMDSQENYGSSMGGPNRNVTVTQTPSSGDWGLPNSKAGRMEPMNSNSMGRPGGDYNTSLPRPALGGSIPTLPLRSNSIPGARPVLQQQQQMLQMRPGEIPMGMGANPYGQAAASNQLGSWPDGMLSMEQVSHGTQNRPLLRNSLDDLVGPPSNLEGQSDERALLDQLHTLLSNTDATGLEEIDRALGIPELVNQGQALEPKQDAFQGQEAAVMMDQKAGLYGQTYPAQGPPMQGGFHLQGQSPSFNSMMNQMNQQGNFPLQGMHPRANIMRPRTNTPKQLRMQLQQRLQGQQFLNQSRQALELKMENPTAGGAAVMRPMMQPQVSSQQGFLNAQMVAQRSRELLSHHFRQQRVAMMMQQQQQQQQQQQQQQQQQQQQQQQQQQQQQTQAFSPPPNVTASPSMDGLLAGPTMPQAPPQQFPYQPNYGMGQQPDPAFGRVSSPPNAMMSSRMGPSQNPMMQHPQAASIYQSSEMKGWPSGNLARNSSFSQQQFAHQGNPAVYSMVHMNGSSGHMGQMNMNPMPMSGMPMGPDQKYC

COc1ccc(C(C(=O)NC2CCCCC2)N(C(=O)CCl)c2ccc(C)cc2)cc1 (centres undefined)
EC50 (HEK293 [1]): 15.6 µM (active)
EC50 (BJ [2]): 0.84 µM (inconclusive)
IC50 (HEK293 [3]): 5.75 µM (active)
EC50 (BJ [4]): 2.63 µM (active)
IC50 (HEK293 [5]): 17.5 µM (active)
IC50 (HEK293 [6]): 7.21 µM (active)
EC50 (BJ [7]): 6.27 µM (active)
EC50 [8]: 0.748 µM (active)
IC50 [9]: > 80 µM (inactive)
EC50 (BJ [10]): 9.18 µM (active)
AC50 (Paired box protein Pax-8): 0.533 µM (active)
AC50 [11]: 0.827 µM (active)

CCC(=O)Nc1ccc2nc3c(O)nc(S)nc3nc2c1
EC50 [12]: 20.9 µM (active)
EC50 [13]: 12.3 µM (active)
IC50 (Genome polyprotein): 39.4 µM (active)
IC50 (Albumin): > 94.1 µM (inactive)

CCCc1cc(O)n2c(n1)nc1ccccc12
IC50 [14]: 35 µM (not active)

COc1cccc(CN(C)C(=O)c2ccc(OCC(=O)Nc3cccc(C(F)(F)F)c3)c(OC)c2)c1
IC50 [9]: > 80 µM (inactive)
AC50 [15]: 4.93 µM (active)
AC50 [16]: 3.38 µM (active)
AC50 [17]: 14.4 µM (active)
IC50 [18]: 4.57 µM (active)

O=C(Nc1ccc2c(c1)OCCO2)c1ccc(Cl)cc1Cl
AC50 [19]: > 52 µM (inactive)
AC50 [20]: > 52 µM (inactive)
AC50 [21]: 11.6 µM (active)
AC50 [22]: 15.2 µM (active)

CN(C)C(=O)c1cc(C(=O)c2ccc(C(F)(F)F)cc2F)c[nH]1
AC50 [23]: > 30 µM (inactive)

Cc1cccc(C2(c3cccc(C)c3)OC(=O)c3ccccc32)c1
AC50 (INS1): 17.7 µM (active)
IC50 [24]: > 69.5 µM (inactive)
IC50 [25]: > 23.2 µM (inactive)

Cc1ccc(S(=O)(=O)N2CCCCC2)cc1NC(=O)CNc1ccc(C(F)(F)F)cc1
IC50 [24]: > 69.5 µM (inactive)
IC50 [25]: 8.89 µM (active)

Cc1cn(S(=O)(=O)c2ccc(Br)c3ccccc23)cn1
EC50 [26]: > 79.4 µM (inactive)
EC50 [27]: > 79.4 µM (not active)
EC50 [28]: > 79.4 µM (not active)
IC50 [14]: 15.5 µM (not active)

CCN1C(=O)/C(=C/c2ccc(C)s2)NC1=S
IC50 [24]: > 69.5 µM (inactive)
IC50 [25]: > 69.5 µM (inactive)

Cc1cc(S(=O)(=O)Nc2ccc(C(=O)NCC3(N4CCCCC4)CCCCC3)cc2)ccc1F
AC50 [23]: > 30 µM (inactive)
